Type in all cases: functional
One assay concerns COLO 205. Put plainly: Cytotoxicity against human COLO205 cells assessed as growth inhibition after 48 hrs by sulforhodamine B assay. The following applies: COLO 205, 48 h. In general terms: The SRB assay estimates cell density from bound dye.
The subject of another assay is OVCAR-5. As to the kind of experiment: Cytotoxicity against human OVCAR5 cells assessed as growth inhibition after 48 hrs by sulforhodamine B assay. The following applies: OVCAR-5, 48 h.
The test system of a further assay is K562. Put plainly: Cytotoxicity against human K562 cells assessed as growth inhibition after 48 hrs by sulforhodamine B assay. The following applies: K562, 48 h.
The subject of another assay is U-251. Put plainly: Cytotoxicity against human U251 cells assessed as growth inhibition after 48 hrs by sulforhodamine B assay. The following applies: U-251, 48 h.
For the next assay, the system named is SK-MEL-2. As to the kind of experiment: Cytotoxicity against human SK-MEL-2 cells assessed as growth inhibition after 48 hrs by sulforhodamine B assay. The following applies: SK-MEL-2, 48 h.
Another assay relates to ACHN. Put plainly: Cytotoxicity against human ACHN cells assessed as growth inhibition after 48 hrs by sulforhodamine B assay.
For another assay, the system named is TK-10. As to the kind of experiment: Cytotoxicity against human TK10 cells assessed as growth inhibition after 48 hrs by sulforhodamine B assay. The following applies: TK-10, 48 h.
The next assay deals with Malme-3M. As to the kind of experiment: Cytotoxicity against human MALME-3M cells assessed as growth inhibition after 48 hrs by sulforhodamine B assay.
For the next assay, the system named is NCI-H226. Put plainly: Cytotoxicity against human NCI-H226 cells assessed as growth inhibition after 48 hrs by sulforhodamine B assay. The following applies: NCI-H226, 48 h.

The record followed here is ChEMBL document CHEMBL4138123, “Design, synthesis and biological evaluation of novel pyrazolochalcones as potential modulators of PI3K/Akt/mTOR pathway and inducers of apoptosis in breast cancer cells” (Eur J Med Chem, 2017).

With `COc1ccc(-c2cc(/C=C/C(=O)c3ccc4c(c3)OCO4)[nH]n2)cc1OC`, the 50% growth inhibitory concentration (GI50) with COLO 205 worked out at 1.55 µM; in the assay with OVCAR-5 it was 1.76 µM; in the assay on K562 it was 0.61 µM; with U-251, 1.2 µM; in the assay with SK-MEL-2, 2.46 µM; in the assay with ACHN, 1.59 µM. In addition, the GI50 in the assay on TK-10 amounted to 1.5 µM; in the assay with Malme-3M, 2.59 µM; in the assay on NCI-H226, 1.66 µM.

In general, GI50 refers to the concentration at which growth is held to half of that of the control.
